Earlier results in patent publication US8632826B2, “Cosmetic wrinkle treatment method based on a zanthoxylum bungeanum extract” (Indena S.p.A., priority 2009, dated 2014).

System: thrombosis

COc1ccc2c(c[n+](C)c3c4cc5c(cc4ccc23)OCO5)c1OC [chelcrythrine]
activity in the prevention of thrombosis: active in the prevention of thrombosis
